Test results published in ChEMBL document CHEMBL1130870, “C6 modification of the pyridinone core of thrombin inhibitor L-374,087 as a means of enhancing its oral absorption” (Bioorg Med Chem Lett, 1998).

Legend:
Prothrombin = Prothrombin (Homo sapiens, UniProt P00734); test: Compound was evaluated to inhibit the thrombin enzyme
Serine protease 1 = Serine protease 1 (Homo sapiens, UniProt P07477); test: Compound was evaluated to inhibit the trypsin enzyme
[1] = Partition coefficient (logP); assay type: physicochemical; conditions: octanol/water
[2] = Compound was evaluated for area under curve (total concentration) in dogs at a dose of 1 mpk perorally; assay type: ADME, organism-based, Canis lupus familiaris; conditions: dog, in vivo, po, 1 mg/kg
[3] = Bioavailability as Cmax in dogs at 5 mg/kg oral dose; assay type: ADME, organism-based, Canis lupus familiaris; design: dose 5 mg/kg, route oral; conditions: dog, in vivo
Rattus norvegicus [4] = organism: Rattus norvegicus; test: Compound was evaluated for its anticoagulant and antithrombotic activity by measuring the %protein binding in rat plasma; assay type: functional, organism-based
[5] = Compound was evaluated for area under curve (total concentration) in dogs at a dose of 5 mpk perorally; assay type: ADME, organism-based, Canis lupus familiaris; conditions: dog, in vivo, po, 5 mg/kg
Rattus norvegicus [6] = organism: Rattus norvegicus; test: Compound was evaluated for its anticoagulant and antithrombotic activity by measuring the clotting parameter in rat plasma; assay type: functional
[7] = Compound was evaluated for Clearance in dogs at a dose of 1 mpk intravenously; assay type: ADME, organism-based, Canis lupus familiaris; conditions: dog, in vivo, iv, 1 mg/kg; read-out: CI
Rattus norvegicus [8] = organism: Rattus norvegicus; test: Compound was evaluated for its anticoagulant and antithrombotic activity by measuring the final plasma concentration in rat plasma; assay type: functional, organism-based
[9] = Bioavailability as Vdss in dogs at 1 mg/kg intravenous dose; assay type: ADME, organism-based, Canis lupus familiaris; conditions: dog, in vivo, read-out: Vdss
Canis familiaris = organism: Canis familiaris; test: (§1) Compound was evaluated for half-life period in dogs at a dose of 5 mpk perorally; assay type: ADME, organism-based, Canis lupus familiaris; conditions: dog, in vivo, po, 5 mg/kg
Homo sapiens = organism: Homo sapiens; test: Compound was evaluated for its anticoagulant and antithrombotic activity by measuring the %protein binding in human plasma; assay type: functional, cell-free
[10] = Compound was evaluated for its anticoagulant and antithrombotic activity by measuring the clotting parameter in human plasma; assay type: functional
[11] = as §1; assay type: ADME, organism-based, Canis lupus familiaris; conditions: dog, in vivo, po, 5 mg/kg

Chain of Serine protease 1 (P07477 whole entry): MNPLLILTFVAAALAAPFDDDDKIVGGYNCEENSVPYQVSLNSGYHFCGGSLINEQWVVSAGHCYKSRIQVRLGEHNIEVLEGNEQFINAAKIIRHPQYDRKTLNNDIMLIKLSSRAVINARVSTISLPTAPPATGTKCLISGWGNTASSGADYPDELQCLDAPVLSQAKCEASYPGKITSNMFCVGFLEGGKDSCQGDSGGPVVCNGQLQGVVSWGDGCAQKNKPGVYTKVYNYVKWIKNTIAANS

Row | Ki (Prothrombin) [µM] | Ki (Serine protease 1) [µM] | logP [1] | AUC [2] [µM·h] | Cmax [3] [µM] | PPB (Rattus norvegicus [4]) [%] | AUC [5] [µM·h] | clearance [7] [L/h/kg] | Vd [9] [L/kg] | T1/2 (Canis familiaris) [h] | PPB (Homo sapiens) [%] | half-life [11] [h] | SMILES | 2x APTT (Rattus norvegicus [6]) [µM] | Plasma concentration (Rattus norvegicus [8]) [µM] | 2x APTT [10] [µM]
1 | 0.00012 | 2.6 | – | – | – | – | – | – | – | – | – | – | Cc1nc(N)ccc1CNC(=O)Cn1c(C)ccc(NS(=O)(=O)Cc2ccc(Cl)cc2)c1=O | – | – | –
2 | 0.012 | 2.5 | – | – | – | – | – | – | – | – | – | – | Cc1nc(N)ccc1CNC(=O)Cn1c(C(F)(F)F)ccc(NS(=O)(=O)Cc2ccccc2)c1=O | – | – | –
3 | 0.016 | 1.7 | – | – | – | – | – | – | – | – | – | – | Cc1nc(N)ccc1CNC(=O)Cn1c(C2CC2)ccc(NS(=O)(=O)Cc2ccccc2)c1=O | – | – | –
4 | 0.0026 | 3.4 | – | – | – | – | – | – | – | – | – | – | Cc1nc(N)ccc1CNC(=O)Cn1c(C(F)(F)F)ccc(NS(=O)(=O)Cc2ccc(Cl)cc2)c1=O | – | – | –
5 | – | – | 0.69 | 9.92 | 5.31 | 47 | 18.8 | 0.228 | 0.46 | 2.52 | 78 | – | Cc1nc(N)ccc1CNC(=O)Cn1c(C)ccc(NS(=O)(=O)Cc2ccccc2)c1=O [L-374087] | 0.25 | 0.586 | 0.22
6 | 0.00085 | 1.4 | 1.52 | 5.93 | 9.46 | 75 | 40.6 | 0.349 | 0.54 | – | 88 | 3.15 | CCCc1ccc(NS(=O)(=O)Cc2ccccc2)c(=O)n1CC(=O)NCc1ccc(N)nc1C | 0.4 | 0.389 | 0.32

Row | SMILES | Ki (Prothrombin) [µM] | Ki (Serine protease 1) [µM] | logP [1] | AUC [2] [µM·h] | Cmax [3] [µM] | PPB (Rattus norvegicus [4]) [%] | AUC [5] [µM·h] | clearance [7] [L/h/kg] | Vd [9] [L/kg] | T1/2 (Canis familiaris) [h] | PPB (Homo sapiens) [%] | half-life [11] [h] | 2x APTT (Rattus norvegicus [6]) [µM] | Plasma concentration (Rattus norvegicus [8]) [µM] | 2x APTT [10] [µM]
7 | Cc1nc(N)ccc1CNC(=O)Cn1c(C2CC2)ccc(NS(=O)(=O)Cc2ccc(Cl)cc2)c1=O | 0.004 | 1.9 | 1.98 | – | – | – | – | – | – | – | 94 | – | – | 0.347 | 1.43
